From patent publication US11407711B2, “Benzamide compound and use thereof” (METISA BIOTECHNOLOGY CO., LTD., priority 2018, dated 2022)
Read-outs that look alike come from different tables or passages of the source.

Tests used:
Format in all cases: in vivo
Plutella xylostella = test: Insecticidal activity against Plutella xylostella (Airbrush spray on cabbage leaf discs); conditions: for pest or weed control at 0.5 µg/mL / pest or weed control at 1 µg/mL / pest or weed control at 10 µg/mL / pest or weed control at 0.05 µg/mL: Plutella xylostella, foliar, 72 h; for Fatality rate (%, 3 d after administration) 5 mg/L: Table 72, 5 mg/L; for pest or weed control at 0.05 µg/mL: read-out: fatality rate against Plutella xylostella, 0.05 mg/L, 3 d after administration; for Fatality rate (%, 3 d after administration) 0.05 mg/L: Table 74, 0.05 mg/L
Protocol: (§1) The compound to be tested was dissolved by a mixed solvent of acetone/methanol (1:1), and then diluted by water containing 0.1% (wt) Tween 80 to the required concentration.
(§2) An Airbrush spray method was adopted for the determination of the activity, with armyworm, Plutella xylostella and Chilo suppressalis as targets.
Determination method: cabbage blades were punched into 2 cm (diameter) leaf discs by a puncher; with the pressure of Airbrush spray being 10 psi (about 0.7 kg/cm^2), both sides of each leaf disc were sprayed with the amount of 0.5 ml. After dried in the shade, each leaf disc was inoculated with 10 3rd-instar larvaes, 3 repeats for each leaf disc. And then, the treated leaf discs were put into an observation room (25° C., relative humidity: 60-70%) for cultivation; the number of the survivals was surveyed 1 d, 2 d and 3 d after administration, and then the death rate was calculated.

armyworm = test: Insecticidal activity against armyworm (Airbrush spray on maize blade segments); conditions: 72 h, read-out: fatality rate against armyworm
Protocol: as §1, §2
Determination method: maize blades were cut into 2 cm (length) segments; with the pressure of Airbrush spray being 10 psi (about 0.7 kg/cm^2), both sides of each blade segment were sprayed with the amount of 0.5 ml. After dried in the shade, each segment was inoculated with 10 3rd-instar larvaes, 3 repeats for each segment. And then, the treated segments were put into an observation room (25° C., relative humidity: 60-70%) for cultivation; the number of the survivals was surveyed 1 d, 2 d and 3 d after administration, and then the death rate was calculated.

Chilo suppressalis = test: Insecticidal activity against Chilo suppressalis (spray on rice seedlings, stems fed to larvae); conditions: for pest or weed control at 1 µg/mL / pest or weed control at 4 µg/mL / pest or weed control at 40 µg/mL: Chilo suppressalis, 72 h, read-out: fatality rate against Chilo suppressalis; for Fatality rate (%, 3 d after administration) 5 mg/L: Table 77, 5 mg/L
Protocol: as §1, §2
Determination method: 1) preparation of rice seedlings: rice was cultivated in small plastic cups (diameter: 4.5 cm and height: 4 cm) at a constant temperature room (temperature: 26-28° C., relative humidity: 60-80% around and illumination: 16 hL:8 hD), after the rice grew to a 4-5 leaf stage, vigorous and uniform-growth rice seedlings were selected and treated with an insecticide, 3 repeats for each treatment. 2) Preparation of pests for test: 3rd-instar larvaes of Chilo suppressalis fed continuously in the room. 3) Inoculation of pests on rice stems by spray. The whole plants of the rice seedlings were sprayed by a spray method uniformly, with the dose of 15 ml for each treatment. The blank control was treated first, and the above operation was repeated in an order of lower to higher test concentration. After sprayed, rice seedlings were placed in the shade to dry the insecticide liquor, and then stalks about 5 cm above the basal part of the stems were cut to be fed to the pests for test. Glass petri dishes (diameter: […]) were prepared, cushioned by filter paper at the bottom thereof, and subjected to water addition for moisturizing; about 20 pieces of rice stems were put in each dish and inoculated with 10 larvaes; then the petri dishes were closed by non-woven fabrics and placed in a constant temperature room for culture. The number of survivals was surveyed 3 d after administration.

[1] = read-out: Fatality rate (%, 3 d after administration) 0.5 mg/L, Table 73, 0.5 mg/L, 3 d after administration
[2] = read-out: Fatality rate (%, 3 d after administration) 1 mg/L, Table 73, 1 mg/L, 3 d after administration
[3] = read-out: Fatality rate (%, 3 d after administration) 10 mg/L, Table 71, 10 mg/L, 3 d after administration
[4] = read-out: fatality rate against Plutella xylostella, 0.5 mg/L, 3 d after administration
[5] = read-out: fatality rate against Plutella xylostella, 1 mg/L, 3 d after administration
[6] = Table 75, fast-acting efficacy, dose 0.5 mg/L
[7] = Table 75, fast-acting efficacy, dose 0.5 mg/L, 3 d after administration
[8] = Table 77, 1.25 mg/L, 3 d after administration
[9] = Table 77, 2.5 mg/L, 3 d after administration
[10] = read-out: Fatality rate (%, 3 d after administration) 0.5 mg/L, Table 74, 0.5 mg/L, 3 d after administration
[11] = Table 76, fast-acting efficacy, dose 0.05 mg/L
[12] = 1 mg/L, 3 d after administration, read-out: fatality rate against Plutella xylostella
[13] = Table 71, 10 mg/L, 3 d after administration, read-out: Fatality rate (%, 3 d after administration) 10 mg/L
[14] = 0.1 mg/L, 3 d after administration, 3rd-instar larvae
[15] = 0.5 mg/L, 3 d after administration, 3rd-instar larvae
[16] = 4 mg/L, survivals surveyed 3 d after administration
[17] = 40 mg/L, survivals surveyed 3 d after administration

Compound	pest or weed control at 0.5 µg/mL (Plutella xylostella; [1])	pest or weed control at 1 µg/mL (Plutella xylostella; [2])	pest or weed control at 10 µg/mL (Plutella xylostella; [3])	pest or weed control at 0.5 µg/mL (Plutella xylostella; [4])	pest or weed control at 1 µg/mL (Plutella xylostella; [5])	pest or weed control at 0.1 µg/mL (armyworm)	pest or weed control at 0.5 µg/mL (armyworm)	pest or weed control at 4 µg/mL (Chilo suppressalis)	pest or weed control at 40 µg/mL (Chilo suppressalis)	other results
N#CCN(C(=O)c1ccccc1)c1cccc(C(=O)Nc2c(Br)cc(C(F)(C(F)(F)F)C(F)(F)F)cc2Br)c1F [Compound 2.321]	100%	100%	100%	≥ 90%	≥ 90%	≥ 90%	≥ 90%	≥ 90%	≥ 90%	Fatality rate (%) 1 d after administration (Plutella xylostella; [6]): 80%; Fatality rate (%) 2 d after administration (Plutella xylostella; [6]): 95%; Fatality rate (%) 3 d after administration (Plutella xylostella; [7]): 100%; pest or weed control at 0.05 µg/mL (armyworm): ≥ 90%; pest or weed control at 1 µg/mL (Chilo suppressalis): ≥ 90%; Fatality rate (%, 3 d after administration) 1.25 mg/L (Chilo suppressalis; [8]): 95.5%; Fatality rate (%, 3 d after administration) 2.5 mg/L (Chilo suppressalis; [9]): 100%; Fatality rate (%, 3 d after administration) 5 mg/L (Chilo suppressalis; 3 d after administration): 100%
N#CCN(C(=O)c1ccccc1)c1cccc(C(=O)Nc2c(Cl)cc(C(F)(C(F)(F)F)C(F)(F)F)cc2Cl)c1F [Compound 3.321]	–	–	100%	–	≥ 90%	≥ 90%	≥ 90%	≥ 90%	≥ 90%	–
Cc1cc(C(F)(C(F)(F)F)C(F)(F)F)cc(Br)c1NC(=O)c1cccc(N(CC#N)C(=O)c2ccccc2)c1F [Compound 6.321]	–	–	100%	–	≥ 90%	–	≥ 90%	–	≥ 90%	pest or weed control at 1 µg/mL (Plutella xylostella; read-out: Fatality rate (%, 3 d after administration) 1 mg/L, Table 72, 1 mg/L, 3 d after administration): 98.5%; Fatality rate (%, 3 d after administration) 5 mg/L (Plutella xylostella; 3 d after administration): 100%
N#CCN(C(=O)c1ccccc1)c1cccc(C(=O)Nc2c(Cl)cc(C(F)(C(F)(F)F)C(F)(F)F)cc2Br)c1F [Compound 7.321]	–	–	100%	–	≥ 90%	≥ 90%	≥ 90%	≥ 90%	≥ 90%	–
N#CCN(C(=O)c1ccccc1)c1cccc(C(=O)Nc2c(Br)cc(C(F)(C(F)(F)F)C(F)(F)F)cc2I)c1F [Compound 8.321]	–	–	100%	–	≥ 90%	≥ 90%	≥ 90%	≥ 90%	≥ 90%	–
N#CCN(C(=O)c1ccccc1)c1cccc(C(=O)Nc2c(Br)cc(C(F)(C(F)(F)F)C(F)(F)F)cc2C(F)(F)F)c1F [Compound 9.321]	–	–	100%	≥ 90%	≥ 90%	≥ 90%	≥ 90%	≥ 90%	≥ 90%	pest or weed control at 0.5 µg/mL (Plutella xylostella; [10]): 100%; pest or weed control at 0.05 µg/mL (Plutella xylostella): ≥ 90%; Fatality rate (%, 3 d after administration) 0.05 mg/L (Plutella xylostella; 3 d after administration): 100%; Fatality rate (%) 1 d after administration (Plutella xylostella; [11]): 70%; Fatality rate (%) 2 d after administration (Plutella xylostella; [11]): 95%; Fatality rate (%) 3 d after administration (Plutella xylostella; Table 76, fast-acting efficacy, dose 0.05 mg/L, 3 d after administration): 100%; pest or weed control at 0.05 µg/mL (armyworm): ≥ 90%; pest or weed control at 1 µg/mL (Chilo suppressalis): ≥ 90%; Fatality rate (%, 3 d after administration) 0.625 mg/L (Chilo suppressalis; Table 78, 0.625 mg/L, 3 d after administration): 98%; Fatality rate (%, 3 d after administration) 1.25 mg/L (Chilo suppressalis; Table 78, 1.25 mg/L, 3 d after administration): 100%; Fatality rate (%, 3 d after administration) 2.5 mg/L (Chilo suppressalis; Table 78, 2.5 mg/L, 3 d after administration): 100%
N#CCN(C(=O)c1cccc(NC(=O)c2ccccc2)c1F)c1c(Br)cc(C(F)(C(F)(F)F)C(F)(F)F)cc1Br [Compound 16.321]	100%	100%	100%	≥ 90%	≥ 90%	≥ 90%	≥ 90%	≥ 90%	≥ 90%	–
N#CCN(C(=O)c1cccc(NC(=O)c2ccccc2)c1F)c1c(Cl)cc(C(F)(C(F)(F)F)C(F)(F)F)cc1Cl [Compound 17.321]	–	–	–	–	–	–	–	–	–	pest or weed control at 1 µg/mL (Plutella xylostella; [12]): ≥ 90%; pest or weed control at 10 µg/mL (Plutella xylostella; [13]): 100%; pest or weed control at 0.1 µg/mL (armyworm; [14]): ≥ 90%; pest or weed control at 0.5 µg/mL (armyworm; [15]): ≥ 90%; pest or weed control at 4 µg/mL (Chilo suppressalis; [16]): ≥ 90%; pest or weed control at 40 µg/mL (Chilo suppressalis; [17]): ≥ 90%
Cc1cc(C(F)(C(F)(F)F)C(F)(F)F)cc(Br)c1N(CC#N)C(=O)c1cccc(NC(=O)c2ccccc2)c1F [Compound 20.321]	–	–	–	–	–	–	–	–	–	pest or weed control at 1 µg/mL (Plutella xylostella; [12]): ≥ 90%; pest or weed control at 10 µg/mL (Plutella xylostella; [13]): 100%; pest or weed control at 1 µg/mL (Plutella xylostella; Table 72, 1 mg/L, 3 d after administration, read-out: Fatality rate (%, 3 d after administration) 1 mg/L): 93.9%; Fatality rate (%, 3 d after administration) 5 mg/L (Plutella xylostella; 3 d after administration): 100%; pest or weed control at 0.5 µg/mL (armyworm; [15]): ≥ 90%; pest or weed control at 40 µg/mL (Chilo suppressalis; [17]): ≥ 90%
N#CCN(C(=O)c1cccc(NC(=O)c2ccccc2)c1F)c1c(Cl)cc(C(F)(C(F)(F)F)C(F)(F)F)cc1Br [Compound 21.321]	–	–	–	–	–	–	–	–	–	pest or weed control at 1 µg/mL (Plutella xylostella; [12]): ≥ 90%; pest or weed control at 10 µg/mL (Plutella xylostella; [13]): 100%; pest or weed control at 0.1 µg/mL (armyworm; [14]): ≥ 90%; pest or weed control at 0.5 µg/mL (armyworm; [15]): ≥ 90%; pest or weed control at 4 µg/mL (Chilo suppressalis; [16]): ≥ 90%; pest or weed control at 40 µg/mL (Chilo suppressalis; [17]): ≥ 90%
CN(C(=O)c1ccccc1)c1cccc(C(=O)N(CC#N)c2c(Br)cc(C(F)(C(F)(F)F)C(F)(F)F)cc2Br)c1F [Compound 30.321]	100%	100%	100%	≥ 90%	≥ 90%	≥ 90%	≥ 90%	≥ 90%	≥ 90%	pest or weed control at 0.5 µg/mL (Plutella xylostella; [10]): 100%; pest or weed control at 0.05 µg/mL (Plutella xylostella): ≥ 90%; Fatality rate (%, 3 d after administration) 0.05 mg/L (Plutella xylostella; 3 d after administration): 100%; Fatality rate (%) 1 d after administration (Plutella xylostella; [6]): 90%; Fatality rate (%) 2 d after administration (Plutella xylostella; [6]): 100%; Fatality rate (%) 3 d after administration (Plutella xylostella; [7]): 100%; pest or weed control at 0.05 µg/mL (armyworm): ≥ 90%; pest or weed control at 1 µg/mL (Chilo suppressalis): ≥ 90%; Fatality rate (%, 3 d after administration) 1.25 mg/L (Chilo suppressalis; [8]): 93.5%; Fatality rate (%, 3 d after administration) 2.5 mg/L (Chilo suppressalis; [9]): 100%; Fatality rate (%, 3 d after administration) 5 mg/L (Chilo suppressalis; 3 d after administration): 100%
N#CCN(C(=O)c1ccccc1)c1cccc(C(=O)N(CC#N)c2c(Br)cc(C(F)(C(F)(F)F)C(F)(F)F)cc2Br)c1F [Compound 58.321]	98%	100%	100%	≥ 90%	≥ 90%	≥ 90%	≥ 90%	≥ 90%	≥ 90%	–
